Assays:
[1] = tested on: Jak2; assay: pTyr-Var library bacterial peptide display kinase screen (enrichment scores); assay type: biochemical, human
[2] = tested on: Fyn kinase domain; assay: as above; assay type: biochemical, human
[3] = tested on: FGFR1 kinase domain; assay: as above; assay type: biochemical, human
[4] = tested on: Fer kinase domain; assay: as above; assay type: biochemical, mouse
[5] = tested on: Hck kinase domain; assay: as above; assay type: biochemical, human; conditions: enrichment score
[6] = tested on: 4G10 Platinum pan-phosphotyrosine antibody; assay: Phosphorylated pTyr-Var library selection with biotinylated pan-phosphotyrosine antibody; assay type: binding, mouse; conditions: enrichment score, sheet SH2-vs-peptide
Procedure: After the desired time of library phosphorylation, kinase activity was quenched with 25 mM EDTA and the cells were washed with PBS containing 0.2% BSA. Kinase-treated cells were then labeled with a 1:1000 dilution of biotinylated 4G10 Platinum anti-phosphotyrosine antibody (Millipore) for an hour on ice and washed with PBS containing 0.1% BSA and 2 mM EDTA (isolation buffer). The cells were finally resuspended in PBS containing 0.1% BSA. The phosphorylated, antibody-labeled cells were then mixed with magnetic beads from Dynabeads FlowComp Flexi kit (Invitrogen), at a ratio of 37.5 μL of washed beads per 50 μL of cell suspension, diluted into 450 μL of isolation buffer. The suspension was rotated at 4 °C for 30 minutes, then 375 μL of isolation buffer was added and the beads were separated from the bulk solution on a magnetic rack. The beads were washed once with 1 mL of isolation buffer, and then the supertantant were removed by aspiration. […] The bead/lysate mixture was centrifuged to pellet the beads and the mixture was stored at -20 °C.

[7] = tested on: Grb2 SH2 domain; assay: pTyr-Var library SH2 domain screen with SH2-dynabeads (enrichment scores)
[8] = target: c-Src SH2 domain (Homo sapiens, UniProt P12931); assay: as above; conditions: sheet c-Src
[9] = tested on: Fes; assay: pTyr-Var library bacterial peptide display kinase screen (enrichment scores); assay type: biochemical; conditions: mean of log2 of enrichment over R1-R6
[10] = tested on: EPHB1 kinase domain; assay: as above; assay type: biochemical, human
[11] = tested on: AncSZ kinase domain; assay: as above; assay type: biochemical
[12] = tested on: MERTK kinase domain; assay: as above; assay type: biochemical, human
[13] = target: T1, c-Abl kinase domain (Mus musculus, UniProt P00520); assay: as above; assay type: biochemical
T1 sequence (P00520 242-493 limits assumed): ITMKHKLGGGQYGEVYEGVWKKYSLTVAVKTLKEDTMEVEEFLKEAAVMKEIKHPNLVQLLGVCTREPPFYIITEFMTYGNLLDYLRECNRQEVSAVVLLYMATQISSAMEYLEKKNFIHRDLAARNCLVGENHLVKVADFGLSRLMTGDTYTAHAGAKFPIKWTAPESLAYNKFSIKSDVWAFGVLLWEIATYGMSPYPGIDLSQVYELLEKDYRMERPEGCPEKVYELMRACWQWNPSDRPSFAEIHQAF

[14] = tested on: SHP2 C-SH2 domain; assay: pTyr-Var library SH2 domain screen with SH2-dynabeads (enrichment scores)
[15] = tested on: FGFR3 kinase domain; assay: pTyr-Var library bacterial peptide display kinase screen (enrichment scores); assay type: biochemical, human
[16] = tested on: EPHB2 kinase domain; assay: as above; assay type: biochemical, human
[17] = target: c-Src kinase domain (Homo sapiens, UniProt P12931); assay: as above; assay type: biochemical
[18] = pTyr-Var library, enrichment score, replicate 1
[19] = pTyr-Var library, enrichment score, replicate 3
[20] = mean of log2 of enrichment over R1-R4
[21] = pTyr-Var library, enrichment score, replicate 4
[22] = mean of log2 enrichment of reference peptide, n = 5
[23] = pTyr-Var library, reference peptide enrichment, mean of n = 5
[24] = mean of log2 enrichment of reference peptide, n = 4
[25] = pTyr-Var library, reference peptide enrichment, mean of n = 4

- Jak2 mean of log2(enrichment) ([1]; mean of log2 of enrichment over R1-R3): 0.9825
- Jak2 enrichment (mean) ([1]; pTyr-Var library, enrichment score, mean of replicates R1-R3): 2.035
- Jak2 enrich. R1 [1, 18]: 2.166
- Jak2 enrich. R3 [1, 19]: 1.407
- Fyn mean of log2(enrichment) [2, 20]: -0.1485
- Fyn enrich. R1 [2, 18]: 1.939
- Fyn enrich. R3 [2, 19]: 1.639
- Fyn enrich. R4 [2, 21]: 0.1487
- mean of log2(reference) [3, 22]: 0.2144
- ref. mean [3, 23]: 1.392
- Fer mean of log2(enrichment) [4, 20]: 0.6409
- Fer enrich. R1 [4, 18]: 1.74
- Fer enrich. R3 [4, 19]: 2.063
- Fer enrich. R4 [4, 21]: 1.716
- Hck enrich. R1 ([5]; replicate 1): 1.102
- Hck enrich. R3 ([5]; replicate 3): 1.0148
- Hck enrich. R4 ([5]; replicate 4): 0.9933
- mean of log2(reference) ([8]; mean of log2 enrichment of reference peptide, R1-R3): 2.001
- ref. mean ([8]; reference peptide, mean of R1-R3): 4.137
- Fes mean of log2(enrichment) [9]: 1.487
- mean of log2(reference) [10, 24]: 0.89
- EPHB1 enrichment (mean) ([10]; pTyr-Var library, enrichment score, mean of replicates): 1.865
- ref. mean [10, 25]: 1.865
- AncSZ mean of log2(enrichment) ([11]; mean of log2 of enrichment over R1-R5): 1.515
- AncSZ enrich. R3 [11, 19]: 3.27
- AncSZ enrich. R4 [11, 21]: 3.639
- AncSZ enrich. R5 ([11]; pTyr-Var library, enrichment score, replicate 5): 3.918
- mean of log2(reference) [12, 24]: 1.359
- ref. mean [12, 25]: 2.61
- c-Abl mean of log2(enrichment) [13, 20]: 0.8901
- c-Abl enrich. R1 [13, 18]: 1.339
- c-Abl enrich. R3 [13, 19]: 1.7654
- c-Abl enrich. R4 [13, 21]: 2.061
- mean of log2(reference) [15, 22]: 1.27
- ref. mean [15, 23]: 2.887
- mean of log2(reference) [16, 24]: -0.3867
- ref. mean [16, 25]: 0.9336
- c-Src mean of log2(enrichment) [17, 20]: 0.391
- c-Src enrich. R1 [17, 18]: 1.08
- c-Src enrich. R3 [17, 19]: 1.298
- c-Src enrich. R4 [17, 21]: 1.223
Sequence: LRVGFYESDVM [A2M_Y708]
- 4G10 (mean) [6]: 1.415
- mean of log2(reference) ([7]; Grb2 SH2, mean of log2 enrichment of reference, R1-R3): -0.1031
- ref. mean ([7]; reference peptide enrichment score, Grb2 SH2, mean of R1-R3): 0.9341
- mean of log2(reference) ([14]; SHP2-C SH2, mean of log2 enrichment of reference, R1-R3): 0.01184
- ref. mean ([14]; reference peptide enrichment score, SHP2-C SH2, mean of R1-R3): 1.018
